Type in all cases: biochemical
One assay has as its target ROCK2 (Homo sapiens, UniProt O75116). The assay can be described thus: Kinome profiling ROCK2. The conditions noted are these: read-out: Inhibitory activity ROCK2; for inhibition at 0.1 µM: 100 nM. On the procedure:
(§1) . The kinome-wide selectivity was determined following the methods previously reported by Mohedas et al., ACS Chem Biol 2013, 8, 1291-1302 and Sanvitale et al., PLoS One 2013, 8, e62721.

The next assay deals with FYN (Homo sapiens, UniProt P06241). The assay can be described thus: Kinome profiling FYN. The conditions noted are these: read-out: Inhibitory activity FYN; for inhibition at 0.1 µM: 100 nM. On the procedure:
as §1

The target of a further assay is ARG (ABL2) (Homo sapiens, UniProt P42684). The assay can be described thus: Kinome profiling ARG (ABL2). Conditions: for inhibition at 0.1 µM: 100 nM. The protocol:
as §1

The target of another assay is MAPK3 (Homo sapiens, UniProt P27361). The assay is described as follows: Kinome profiling MAPK3. Conditions: read-out: Inhibitory activity MAPK3; for inhibition at 0.1 µM: 100 nM. The protocol: as §1
Chain of MAPK3 (P27361 whole entry): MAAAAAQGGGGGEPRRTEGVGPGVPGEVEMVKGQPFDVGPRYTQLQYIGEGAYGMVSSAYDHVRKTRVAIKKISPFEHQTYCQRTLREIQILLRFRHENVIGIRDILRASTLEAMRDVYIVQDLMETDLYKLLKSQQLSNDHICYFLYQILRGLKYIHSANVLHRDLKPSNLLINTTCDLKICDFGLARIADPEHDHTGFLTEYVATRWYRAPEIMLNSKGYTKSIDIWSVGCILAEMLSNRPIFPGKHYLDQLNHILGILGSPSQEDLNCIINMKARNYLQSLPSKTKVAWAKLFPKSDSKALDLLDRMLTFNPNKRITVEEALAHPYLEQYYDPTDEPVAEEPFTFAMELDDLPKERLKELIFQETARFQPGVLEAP
The target in a further assay is CDK3/cyclinE (Homo sapiens, UniProt Q00526). The assay can be described thus: Kinome profiling CDK3/cyclinE. Conditions: read-out: Inhibitory activity CDK3/cyclinE; for inhibition at 0.1 µM: 100 nM. The protocol:
as §1

The next assay concerns the target MARK3 (Homo sapiens, UniProt P27448). The assay is described as follows: Kinome profiling MARK3. The conditions noted are these: read-out: Inhibitory activity MARK3; for inhibition at 0.1 µM: 100 nM. On the procedure:
as §1

Another assay has as its target CK1-γ3 (Homo sapiens, UniProt Q9Y6M4). The assay is described as follows: Kinome profiling CK1-γ3. Conditions: read-out: Inhibitory activity CK1-γ3; for inhibition at 0.1 µM: 100 nM. On the procedure: as §1
Another assay deals with P38β (Homo sapiens, UniProt Q15759). The assay is described as follows: Kinome profiling P38β. Conditions: read-out: Inhibitory activity P38β; for inhibition at 0.1 µM: 100 nM. The protocol:
as §1

The target in another assay is IRR (Homo sapiens, UniProt P14616). The assay is described as follows: Kinome profiling IRR. Conditions: read-out: Inhibitory activity IRR; for inhibition at 0.1 µM: 100 nM. The protocol:
as §1

Another assay deals with T1, ITK (Homo sapiens, UniProt Q08881).
T1 sequence (Q08881 1-620): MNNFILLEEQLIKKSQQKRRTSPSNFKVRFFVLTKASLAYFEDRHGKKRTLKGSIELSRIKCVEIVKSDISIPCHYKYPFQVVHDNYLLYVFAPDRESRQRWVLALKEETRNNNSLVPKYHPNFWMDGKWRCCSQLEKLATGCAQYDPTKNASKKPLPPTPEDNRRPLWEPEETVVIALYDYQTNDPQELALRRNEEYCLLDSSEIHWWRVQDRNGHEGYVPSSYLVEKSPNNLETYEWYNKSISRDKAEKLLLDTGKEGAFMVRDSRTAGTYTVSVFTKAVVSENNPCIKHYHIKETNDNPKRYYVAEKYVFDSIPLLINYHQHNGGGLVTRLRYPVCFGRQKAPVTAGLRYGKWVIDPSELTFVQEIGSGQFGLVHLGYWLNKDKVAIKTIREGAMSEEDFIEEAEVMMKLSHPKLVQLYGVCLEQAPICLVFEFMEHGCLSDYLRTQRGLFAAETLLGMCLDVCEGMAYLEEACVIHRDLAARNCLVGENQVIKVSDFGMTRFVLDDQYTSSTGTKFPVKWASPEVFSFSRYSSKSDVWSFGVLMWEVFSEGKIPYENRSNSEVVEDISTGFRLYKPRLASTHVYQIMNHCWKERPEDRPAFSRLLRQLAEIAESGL
The assay is described as follows: Kinome profiling ITK. The conditions noted are these: read-out: Inhibitory activity ITK; for inhibition at 0.1 µM: 100 nM. The protocol:
as §1

Another assay addresses T2, BRSK2 (Homo sapiens, UniProt Q8IWQ3).
T2 sequence (Q8IWQ3 1-736): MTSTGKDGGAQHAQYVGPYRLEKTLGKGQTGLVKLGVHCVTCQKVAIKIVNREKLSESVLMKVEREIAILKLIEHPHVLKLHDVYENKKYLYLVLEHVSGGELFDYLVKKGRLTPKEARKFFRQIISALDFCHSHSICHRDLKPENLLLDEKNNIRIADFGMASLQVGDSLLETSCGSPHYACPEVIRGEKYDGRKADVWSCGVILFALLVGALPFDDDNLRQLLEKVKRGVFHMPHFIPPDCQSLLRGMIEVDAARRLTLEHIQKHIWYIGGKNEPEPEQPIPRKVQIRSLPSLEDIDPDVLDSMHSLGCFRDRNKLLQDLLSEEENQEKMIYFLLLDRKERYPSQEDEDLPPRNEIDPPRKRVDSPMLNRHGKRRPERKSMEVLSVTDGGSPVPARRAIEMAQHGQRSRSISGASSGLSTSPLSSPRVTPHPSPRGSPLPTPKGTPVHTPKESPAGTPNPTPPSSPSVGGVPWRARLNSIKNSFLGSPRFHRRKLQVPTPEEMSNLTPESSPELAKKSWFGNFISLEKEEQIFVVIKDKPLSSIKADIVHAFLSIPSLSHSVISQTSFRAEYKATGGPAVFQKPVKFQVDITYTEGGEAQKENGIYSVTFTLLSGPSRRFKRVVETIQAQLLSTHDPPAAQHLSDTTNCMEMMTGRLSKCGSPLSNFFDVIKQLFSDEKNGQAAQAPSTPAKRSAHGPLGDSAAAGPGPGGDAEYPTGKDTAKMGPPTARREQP
The assay can be described thus: Kinome profiling BRSK2. The conditions noted are these: read-out: Inhibitory activity BRSK2; for inhibition at 0.1 µM: 100 nM. The protocol: as §1

Where [1] appears, read: read-out: Inhibitory activity ARG (ABL2).
Where [2] appears, read: Table 4, read-out: Inhibitory Activity ARG.

Where two headings read alike, the source gives them in different places.

Chain of ROCK2 (O75116 whole entry): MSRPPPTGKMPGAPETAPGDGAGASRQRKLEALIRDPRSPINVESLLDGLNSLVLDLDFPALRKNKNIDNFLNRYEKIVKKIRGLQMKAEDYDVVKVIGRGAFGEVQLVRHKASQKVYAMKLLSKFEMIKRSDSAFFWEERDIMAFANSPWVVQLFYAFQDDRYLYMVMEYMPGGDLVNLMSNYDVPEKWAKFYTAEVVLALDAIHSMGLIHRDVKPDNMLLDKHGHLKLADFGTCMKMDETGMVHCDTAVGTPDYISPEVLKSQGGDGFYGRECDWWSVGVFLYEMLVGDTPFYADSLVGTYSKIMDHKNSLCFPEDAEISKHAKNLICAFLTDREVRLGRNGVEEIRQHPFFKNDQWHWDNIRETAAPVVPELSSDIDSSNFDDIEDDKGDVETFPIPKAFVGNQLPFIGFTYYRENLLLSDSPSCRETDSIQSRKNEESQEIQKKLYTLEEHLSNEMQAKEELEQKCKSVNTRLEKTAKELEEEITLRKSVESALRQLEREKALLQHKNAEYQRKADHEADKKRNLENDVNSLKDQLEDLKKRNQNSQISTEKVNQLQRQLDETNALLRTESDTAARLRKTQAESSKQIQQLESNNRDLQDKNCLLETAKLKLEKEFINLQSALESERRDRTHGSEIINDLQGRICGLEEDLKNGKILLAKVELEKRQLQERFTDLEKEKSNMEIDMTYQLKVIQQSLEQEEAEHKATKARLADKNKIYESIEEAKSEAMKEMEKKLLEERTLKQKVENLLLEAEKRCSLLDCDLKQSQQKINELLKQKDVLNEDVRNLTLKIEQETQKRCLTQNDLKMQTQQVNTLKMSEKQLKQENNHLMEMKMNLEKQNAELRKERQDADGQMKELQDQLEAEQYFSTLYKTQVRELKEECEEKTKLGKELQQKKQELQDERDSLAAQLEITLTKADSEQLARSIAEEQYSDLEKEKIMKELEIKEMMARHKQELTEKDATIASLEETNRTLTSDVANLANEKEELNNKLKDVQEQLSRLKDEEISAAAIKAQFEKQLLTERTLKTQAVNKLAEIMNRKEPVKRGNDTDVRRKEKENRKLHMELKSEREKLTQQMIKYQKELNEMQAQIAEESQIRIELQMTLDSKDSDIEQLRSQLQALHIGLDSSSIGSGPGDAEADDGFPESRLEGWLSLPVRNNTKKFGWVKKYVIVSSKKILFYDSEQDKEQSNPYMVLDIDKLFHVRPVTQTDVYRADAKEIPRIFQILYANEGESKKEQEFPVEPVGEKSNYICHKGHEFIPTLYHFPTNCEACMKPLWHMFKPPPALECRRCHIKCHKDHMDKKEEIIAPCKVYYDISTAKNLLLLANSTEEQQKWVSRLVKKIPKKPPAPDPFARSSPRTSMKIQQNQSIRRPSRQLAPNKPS
Chain of CDK3/cyclinE (Q00526 whole entry): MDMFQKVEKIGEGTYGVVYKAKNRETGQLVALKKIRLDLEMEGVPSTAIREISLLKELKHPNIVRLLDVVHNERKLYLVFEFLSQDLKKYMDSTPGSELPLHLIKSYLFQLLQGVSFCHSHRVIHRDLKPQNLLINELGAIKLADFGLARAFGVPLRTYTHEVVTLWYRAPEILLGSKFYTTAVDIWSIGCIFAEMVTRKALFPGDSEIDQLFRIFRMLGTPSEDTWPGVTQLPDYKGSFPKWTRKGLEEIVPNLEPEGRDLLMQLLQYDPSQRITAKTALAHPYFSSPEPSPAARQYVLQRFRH
Chain of CDK3/cyclinE (P24864 whole entry partner): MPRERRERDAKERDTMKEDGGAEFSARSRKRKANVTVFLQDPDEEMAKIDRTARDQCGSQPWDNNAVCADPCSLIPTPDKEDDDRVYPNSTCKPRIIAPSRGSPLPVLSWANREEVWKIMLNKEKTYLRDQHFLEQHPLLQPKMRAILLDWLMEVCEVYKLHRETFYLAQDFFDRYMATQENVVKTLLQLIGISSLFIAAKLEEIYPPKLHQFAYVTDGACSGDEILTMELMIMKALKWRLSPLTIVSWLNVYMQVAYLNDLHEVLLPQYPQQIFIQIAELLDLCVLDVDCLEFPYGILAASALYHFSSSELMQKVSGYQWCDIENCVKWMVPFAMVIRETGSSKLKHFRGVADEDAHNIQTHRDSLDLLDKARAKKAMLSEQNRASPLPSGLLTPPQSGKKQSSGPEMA
Chain of CK1-γ3 (Q9Y6M4 whole entry): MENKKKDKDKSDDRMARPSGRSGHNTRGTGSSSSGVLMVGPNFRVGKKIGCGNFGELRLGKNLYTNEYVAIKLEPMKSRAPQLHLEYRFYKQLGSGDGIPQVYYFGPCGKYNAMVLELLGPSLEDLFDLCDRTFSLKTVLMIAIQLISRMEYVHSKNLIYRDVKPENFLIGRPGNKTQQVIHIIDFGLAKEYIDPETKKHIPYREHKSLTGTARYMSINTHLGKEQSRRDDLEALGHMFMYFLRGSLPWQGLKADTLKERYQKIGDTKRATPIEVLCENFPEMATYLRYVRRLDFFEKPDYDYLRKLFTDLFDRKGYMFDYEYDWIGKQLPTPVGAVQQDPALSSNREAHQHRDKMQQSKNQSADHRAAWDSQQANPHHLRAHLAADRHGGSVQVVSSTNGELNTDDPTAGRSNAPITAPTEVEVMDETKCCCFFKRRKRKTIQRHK
Chain of IRR (P14616 27-1297): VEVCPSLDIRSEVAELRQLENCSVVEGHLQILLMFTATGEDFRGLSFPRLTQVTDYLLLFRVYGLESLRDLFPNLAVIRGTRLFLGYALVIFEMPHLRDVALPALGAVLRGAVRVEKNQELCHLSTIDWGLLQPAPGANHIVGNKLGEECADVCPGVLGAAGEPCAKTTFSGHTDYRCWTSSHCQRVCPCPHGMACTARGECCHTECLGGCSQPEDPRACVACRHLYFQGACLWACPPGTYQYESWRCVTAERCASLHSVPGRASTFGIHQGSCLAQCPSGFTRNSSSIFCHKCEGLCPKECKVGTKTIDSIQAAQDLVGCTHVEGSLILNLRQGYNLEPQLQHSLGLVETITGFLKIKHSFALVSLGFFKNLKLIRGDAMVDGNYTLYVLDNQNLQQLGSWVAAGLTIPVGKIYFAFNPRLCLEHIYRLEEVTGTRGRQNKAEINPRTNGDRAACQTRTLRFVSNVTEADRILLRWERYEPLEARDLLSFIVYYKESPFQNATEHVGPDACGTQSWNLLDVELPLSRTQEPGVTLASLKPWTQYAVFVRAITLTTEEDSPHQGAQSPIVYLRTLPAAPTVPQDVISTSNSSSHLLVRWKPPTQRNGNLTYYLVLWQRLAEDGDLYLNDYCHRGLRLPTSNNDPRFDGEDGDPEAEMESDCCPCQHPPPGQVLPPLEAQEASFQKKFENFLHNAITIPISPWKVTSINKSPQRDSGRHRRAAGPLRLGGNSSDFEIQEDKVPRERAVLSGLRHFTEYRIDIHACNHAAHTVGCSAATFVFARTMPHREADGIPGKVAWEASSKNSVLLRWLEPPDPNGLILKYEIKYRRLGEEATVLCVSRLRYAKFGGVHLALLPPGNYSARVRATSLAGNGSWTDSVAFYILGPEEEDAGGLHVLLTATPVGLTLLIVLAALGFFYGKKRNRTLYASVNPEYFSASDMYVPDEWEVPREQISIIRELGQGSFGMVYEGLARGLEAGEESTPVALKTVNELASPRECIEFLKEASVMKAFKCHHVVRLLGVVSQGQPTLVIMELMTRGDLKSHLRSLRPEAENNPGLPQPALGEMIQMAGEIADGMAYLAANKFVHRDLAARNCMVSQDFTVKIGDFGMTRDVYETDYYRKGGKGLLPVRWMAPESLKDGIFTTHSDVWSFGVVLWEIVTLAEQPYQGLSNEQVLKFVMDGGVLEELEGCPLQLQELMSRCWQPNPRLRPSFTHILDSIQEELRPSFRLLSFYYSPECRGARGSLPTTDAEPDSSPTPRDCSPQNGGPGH
Chain of P38β (Q15759 whole entry): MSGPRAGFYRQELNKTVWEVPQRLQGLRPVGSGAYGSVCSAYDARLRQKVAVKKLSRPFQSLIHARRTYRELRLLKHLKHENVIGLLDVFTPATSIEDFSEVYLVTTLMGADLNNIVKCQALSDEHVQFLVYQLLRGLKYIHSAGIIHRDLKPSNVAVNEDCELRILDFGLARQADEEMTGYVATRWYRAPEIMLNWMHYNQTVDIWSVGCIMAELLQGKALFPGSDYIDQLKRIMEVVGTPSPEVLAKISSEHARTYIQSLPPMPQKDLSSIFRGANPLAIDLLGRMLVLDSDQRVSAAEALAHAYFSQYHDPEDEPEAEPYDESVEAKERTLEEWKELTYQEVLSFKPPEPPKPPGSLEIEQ

`COc1cc(-c2cc(-c3ccc(N4CCNCC4)cc3)cnc2N)cc(OC)c1OC` [Compound 15, 5-(4-(piperazin-1-yl)phenyl)-3-(3,4,5-trimethoxyphenyl)pyridin-2-amine]: the inhibition at 0.1 µM on ROCK2 is -1%; at FYN, 40%; on ARG (ABL2) (setting [1]), 60%; at MAPK3, 1%; at CDK3/cyclinE it was 0%; at MARK3 it was 4%. Besides, the inhibition at 0.1 µM at CK1-γ3 is 7%; at P38β it was 10%; on IRR, 3%; on ITK, 0%; at BRSK2, 1%. The inhibition at 1 µM at ROCK2 is 2%; on FYN, 79%; on ARG (ABL2) (setting [1]), 81%; on MAPK3 it was 0%; at CDK3/cyclinE, 0%; at MARK3, 48%. Besides, the inhibition at 1 µM on CK1-γ3 worked out at 30%; at P38β, 44%; at IRR it was 3%; at ITK, 2%; on BRSK2, 2%.
As to `COc1cc(-c2cc(-c3ccc(N4CCNCC4)cc3)cnc2C)cc(OC)c1OC` [Compound 10, 1-(4-(6-methyl-5-(3,4,5-trimethoxyphenyl)pyridin-3-yl)phenyl)piperazine], the inhibition at 0.1 µM came to 4% at ROCK2; 8% on FYN; 17% on ARG (ABL2) (setting [2]); 17% on ARG (ABL2) (setting [1]); 1% at MAPK3; 2% at CDK3/cyclinE. Also, the inhibition at 0.1 µM is 0% at MARK3; 1% on CK1-γ3; 1% on P38β; 2% at IRR; 0% at ITK; 2% on BRSK2. Also, the inhibition at 1 µM is 3% on ROCK2; 36% on FYN; 62% on ARG (ABL2) (setting [2]); 62% at ARG (ABL2) (setting [1]); 2% at MAPK3; 2% at CDK3/cyclinE. Also, the inhibition at 1 µM at MARK3 is 3%; at CK1-γ3, 10%; at P38β, 11%; on IRR, 1%; at ITK, -1%; at BRSK2, 1%.

Values taken from patent US20170190705A1, “Compositions and Methods for Inhibiting BMP” (THE BRIGHAM AND WOMAN'S HOSPITAL, INC., priority 2014, published 2017).
